According to PubChem BioAssay AID1918931 (Molecular Pharmacology Branch, DTP, NCI, 2023):

System: 138582-337-R-J1-PDC complex spheroid viability
Assay: Anticancer human tumor 138582-337-R-J1-PDC patient-derived Merkel cell tumor cell line growth inhibition
Conditions: for IC50: curve of first compound; for viability, T/C: stronger effect = lower value
In short: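 Multicellular complex spheroids of tumor cells with human endothelial cells (HUVEC) and mesenchymal stem cells; the LSD1 inhibitor iadademstat was combined with standard-of-care or investigational agents. Top concentration at or near clinical Cmax, half-log dilutions; final DMSO ≤0.25%.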

[1] = second compound 0.1 µM, first compound 0.00949 µM
[2] = second compound 0.1 µM, first compound 0.03 µM
[3] = second compound 0.1 µM, first compound 0.0949 µM
[4] = second compound 0.1 µM, first compound 0.3 µM
[5] = second compound 0.316 µM, first compound 0.00949 µM
[6] = second compound 0.316 µM, first compound 0.03 µM
[7] = second compound 0.316 µM, first compound 0.0949 µM
[8] = second compound 0.316 µM, first compound 0.3 µM
[9] = second compound 1 µM, first compound 0.00949 µM
[10] = second compound 1 µM, first compound 0.03 µM
[11] = second compound 1 µM, first compound 0.0949 µM
[12] = second compound 1 µM, first compound 0.3 µM
[13] = second compound 3.16 µM, first compound 0.00949 µM
[14] = second compound 3.16 µM, first compound 0.03 µM
[15] = second compound 3.16 µM, first compound 0.0949 µM
[16] = second compound 3.16 µM, first compound 0.3 µM
[17] = second compound 10 µM, first compound 0.00949 µM
[18] = second compound 10 µM, first compound 0.03 µM
[19] = second compound 10 µM, first compound 0.0949 µM
[20] = second compound 10 µM, first compound 0.3 µM
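Also: spheroids exposed to agents for 7 days.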
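For viability, T/C in this document: 100% = DMSO vehicle control viability.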

In the case of CCN(c1cc(-c2ccc(CN3CCOCC3)cc2)cc(C(=O)NCc2c(C)cc(C)[nH]c2=O)c1C)C1CCOCC1 + NC1CCC(NC2CC2c2ccccc2)CC1, the IC50 (second compound 0.1 µM) is reported as greater than 3000 nM, the IC50 (second compound 0.316 µM) is reported as greater than 3000 nM and the IC50 (second compound 1 µM) is reported as greater than 3000 nM. The IC50 (second compound 3.16 µM) was greater than 3000 nM, the IC50 (second compound 10 µM) was greater than 3000 nM and the viability, T/C [1] was 101%. For the same compound, the viability, T/C [2] was 87.9%, the viability, T/C [3] was 109% and the viability, T/C [4] was 92.4%. It also gave a viability, T/C (second compound 0.1 µM, first compound 0.949 µM) of 106%, a viability, T/C (second compound 0.1 µM, first compound 3 µM) of 111% and a viability, T/C [5] of 101%. It also gave a viability, T/C [6] of 101%, a viability, T/C [7] of 91% and a viability, T/C [8] of 95.3%. It also gave a viability, T/C (second compound 0.316 µM, first compound 0.949 µM) of 124%, a viability, T/C (second compound 0.316 µM, first compound 3 µM) of 105% and a viability, T/C [9] of 98.6%. It also gave a viability, T/C [10] of 106%, a viability, T/C [11] of 98.2% and a viability, T/C [12] of 90.3%. It also gave a viability, T/C (second compound 1 µM, first compound 0.949 µM) of 97.7%, a viability, T/C (second compound 1 µM, first compound 3 µM) of 103% and a viability, T/C [13] of 99.2%. The viability, T/C [14] was 103%, the viability, T/C [15] was 90.6% and the viability, T/C [16] was 92.3%. It also gave a viability, T/C (second compound 3.16 µM, first compound 0.949 µM) of 110%, a viability, T/C (second compound 3.16 µM, first compound 3 µM) of 105% and a viability, T/C [17] of 88.9%. It also gave a viability, T/C [18] of 86.7%, a viability, T/C [19] of 82.2% and a viability, T/C [20] of 90.9%. For the same compound, the viability, T/C (second compound 10 µM, first compound 0.949 µM) was 84.9% and the viability, T/C (second compound 10 µM, first compound 3 µM) was 84.8%.
Compound Nc1ncn(C2CC(O)C(CO)S2)c(=O)n1 (stereo not given) + NC1CCC(NC2CC2c2ccccc2)CC1 has an IC50 (second compound 0.1 µM) greater than 300 nM, an IC50 (second compound 0.316 µM) greater than 300 nM and an IC50 (second compound 1 µM) greater than 300 nM. The IC50 (second compound 3.16 µM) was greater than 300 nM, the IC50 (second compound 10 µM) was greater than 300 nM and the viability, T/C (second compound 0.1 µM, first compound 0.000949 µM) was 98.9%. For the same compound, the viability, T/C (second compound 0.1 µM, first compound 0.003 µM) was 105%, the viability, T/C [1] was 101% and the viability, T/C [2] was 102%. For the same compound, the viability, T/C [3] was 106%, the viability, T/C [4] was 93.5% and the viability, T/C (second compound 0.316 µM, first compound 0.000949 µM) was 95%. It also gave a viability, T/C (second compound 0.316 µM, first compound 0.003 µM) of 93.9%, a viability, T/C [5] of 96.4% and a viability, T/C [6] of 95.4%. For the same compound, the viability, T/C [7] was 94.5%, the viability, T/C [8] was 108% and the viability, T/C (second compound 1 µM, first compound 0.000949 µM) was 90.9%. The viability, T/C (second compound 1 µM, first compound 0.003 µM) was 103%, the viability, T/C [9] was 107% and the viability, T/C [10] was 87.8%. For the same compound, the viability, T/C [11] was 81%, the viability, T/C [12] was 100% and the viability, T/C (second compound 3.16 µM, first compound 0.000949 µM) was 89.2%. For the same compound, the viability, T/C (second compound 3.16 µM, first compound 0.003 µM) was 96%, the viability, T/C [13] was 88% and the viability, T/C [14] was 78.4%. It also gave a viability, T/C [15] of 93.5%, a viability, T/C [16] of 84.7% and a viability, T/C (second compound 10 µM, first compound 0.000949 µM) of 80.1%. It also gave a viability, T/C (second compound 10 µM, first compound 0.003 µM) of 80.4%, a viability, T/C [17] of 91.4% and a viability, T/C [18] of 87.5%. It also gave a viability, T/C [19] of 78.6% and a viability, T/C [20] of 85%.
With O=C(C=Cn1cnc(-c2cc(C(F)(F)F)cc(C(F)(F)F)c2)n1)NNc1cnccn1 + NC1CCC(NC2CC2c2ccccc2)CC1 the IC50 (second compound 0.1 µM) was 8.4 nM, the IC50 (second compound 0.316 µM) was 9.48 nM and the IC50 (second compound 1 µM) was 7.39 nM. The IC50 (second compound 3.16 µM) was 6.26 nM, the IC50 (second compound 10 µM) was 5.57 nM and the viability, T/C (second compound 0.1 µM, first compound 0.00316 µM) was 73.5%. It also gave a viability, T/C (second compound 0.1 µM, first compound 0.01 µM) of 45.8%, a viability, T/C (second compound 0.1 µM, first compound 0.0316 µM) of 21.6% and a viability, T/C (second compound 0.1 µM, first compound 0.1 µM) of 18.4%. For the same compound, the viability, T/C (second compound 0.1 µM, first compound 0.316 µM) was 22.6%, the viability, T/C (second compound 0.1 µM, first compound 1 µM) was 17.4% and the viability, T/C (second compound 0.316 µM, first compound 0.00316 µM) was 67%. The viability, T/C (second compound 0.316 µM, first compound 0.01 µM) was 49.1%, the viability, T/C (second compound 0.316 µM, first compound 0.0316 µM) was 21.2% and the viability, T/C (second compound 0.316 µM, first compound 0.1 µM) was 20.7%. For the same compound, the viability, T/C (second compound 0.316 µM, first compound 0.316 µM) was 30.3%, the viability, T/C (second compound 0.316 µM, first compound 1 µM) was 21.7% and the viability, T/C (second compound 1 µM, first compound 0.00316 µM) was 82.5%. It also gave a viability, T/C (second compound 1 µM, first compound 0.01 µM) of 38.4%, a viability, T/C (second compound 1 µM, first compound 0.0316 µM) of 21.4% and a viability, T/C (second compound 1 µM, first compound 0.1 µM) of 20.5%. It also gave a viability, T/C (second compound 1 µM, first compound 0.316 µM) of 21.6%, a viability, T/C (second compound 1 µM, first compound 1 µM) of 23.1% and a viability, T/C (second compound 3.16 µM, first compound 0.00316 µM) of 61%. It also gave a viability, T/C (second compound 3.16 µM, first compound 0.01 µM) of 42.4%, a viability, T/C (second compound 3.16 µM, first compound 0.0316 µM) of 19% and a viability, T/C (second compound 3.16 µM, first compound 0.1 µM) of 20.1%. The viability, T/C (second compound 3.16 µM, first compound 0.316 µM) was 22.8%, the viability, T/C (second compound 3.16 µM, first compound 1 µM) was 24.7% and the viability, T/C (second compound 10 µM, first compound 0.00316 µM) was 75%. It also gave a viability, T/C (second compound 10 µM, first compound 0.01 µM) of 24.6%, a viability, T/C (second compound 10 µM, first compound 0.0316 µM) of 11.9% and a viability, T/C (second compound 10 µM, first compound 0.1 µM) of 18%. The viability, T/C (second compound 10 µM, first compound 0.316 µM) was 24.5% and the viability, T/C (second compound 10 µM, first compound 1 µM) was 31.8%.
